Source: patent US20070167408A1, “NOVEL ALKYL PHOSPHOLIPID DERIVATIVES WITH REDUCED CYTOTOXICITY AND USES THEREOF” (ZENTARIS GmbH, priority 2005, published 2007)
In brackets after ≈: the same amount, converted by molar mass.

How the values were obtained:
[1] = test system: epimastigotes of Trypanosoma cruzi strain Y; assay: In vitro activity of miltefosine and benznidazole against epimastigotes; type: cell-based; details: 72 h
Protocol: In vitro activity of Miltefosine and Benznidazole in the course of a combination treatment against Trypanosoma cruzi strain Y was assessed compared to the respective single treatments with miltefosine or benznidazole alone.
Miltefosine and Benznidazol were tested in vitro in combination against epimastigote forms of Trypanosoma cruzi strain Y which were isolated from a chagasic patient in Sao Paulo, Brazil and obtained from Dr. Victor Nussenzweig (Silva, L H. and Nussenzweig, V.; Folia clin. biol., 20: 191-207, 1953). This T. cruzi Y strain can also be ordered at ATCC 50832, while the ATCC strain must be re-adapted by several passages through mice in order to regain the strain's original characteristics of differentiation and virulence.
Epimastigotes were axenially cultured in brain heart infusion medium (BHI, Becton, Dickinson, Cat. No. 221812) supplemented with 10 mg of hemin per liter and 5% heat inactivated fetal calf serum (FCS) at 28° C. with shaking (˜80 rpm) up to a maximum of 10-12 passages, before the cultures were aged to obtain metacyclics that were purified on a DE-52 column (Whatman DEAE cellulose ion exchange column, Waco, Cat. No. 17050-03 or 17050-04) and injected into mice. After 2-4 weeks parasites were recovered from blood and placed back into axenic culture.
Stock solutions of Miltefosine and Benznidazol in concentrations of 10 mg/ml and 20 mg/ml dissolved in methanol were used. Stock solutions were serially diluted with a factor of 2 in BHI-FCS medium. For Benznidazol the following testing concentrations were used: 80 μg/ml, 40 μg/ml, 20 μg/ml, 10 μg/ml, 5 μg/ml and 2.5 μg/ml. The testing concentrations for Miltefosine were 20 μg/ml, 10 μg/ml, 5 μg/ml, 2.5 μg/ml, 1.25 μg/ml and 0.625 μg/ml.
2×10^6 epimastigotes were incubated in BHI-FCS medium with Miltefosine and Benznidazol in a final volume of 200 μl. After 72 h incubation at 28° C., parasite growth was determined by direct counting the number of parasites with a Neubauer chamber. The 50% inhibitory concentrations were determined by linear regression analysis.

[2] = test system: Trypanosoma brucei rhodesiense (strain STIB900); assay: In vitro drug activity assay, protozoon B; type: cell-based; details: bloodstream form trypomastigotes, 72 hours, Alamar Blue
Protocol: (§1) In vitro activity of selected compounds of the invention against different protozoa was assessed as follows.
Trypanosoma brucei rhodesiense STIB900 bloodstream form trypomastigotes were maintained in HMI-18 medium (Hirumi H, Hirumi K, J Parasitol. 1989, 75(6):985-989) with 15% heat-inactivated fetal calf serum at 37° C., 5% CO2, humidified atmosphere. Trypomastigotes were washed and resuspended in fresh medium at a concentration of 2×10^5 mL. Test compounds were given to the trypomastigotes and plates were incubated for 72 hours at 37° C., 5% CO2, humidified atmosphere. At 72 hours the plates were assessed microscopically before Alamar Blue was added (Raz et al., Acta Trop. 1997, 68: 139-147). Plates were read after 5 to 6 hours at EX/EM 530/585 nm with a filter cutoff at 550 nm. ED50 values were calculated with Msxlfit (IDBS).
(§2) The following protozoa were assessed: • A) Trypanosoma cruzi (Tulahuan-LACZ amstigotes in PEM, Lorente S O et al., Antimicrobial agents and chemotherapy 2004, 48(8): 2937-2950; Buckner et al., Infection and Immunity 1999, 67(1): 403-409; Buckner et al., Antimicrobial Agents and Chemotherapy 1996, 40(11): 2592-2597) • B) Trypanosoma brucei rhodesiense (strain STIB900, Lorente S O et al., Antimicrobial agents and chemotherapy 2004, 48(8): 2937-2950; Habtemariam S, BMC Pharmacology 2003, 3:6) • C) Plasmodium falciparum (strain K1, Korsinczky M et al., Antimicrobial agents and chemotherapy 2000, 44(8): 2100-2108; Thaitong S and Beale G H, Trans. R. Soc. Trop. Med. Hyg. 1981, 75: 271-273; Trager W and Jensen J B, Science 1976, 193: 673-675) • D) Plasmodium faiciparum (strain 3D7, Mu et al., PLoS Biology 2005, 3(10): e335)

[3] = test system: Cryptococcus gattii ATCC 32608; assay: Anti-fungal broth microdilution (MIC), fungus J; type: cell-based; details: yeast protocol, more than 80% inhibition, 48 h
Protocol: (§3) Anti-fungal activity of selected compounds of the invention was assessed by means of anti-fungal susceptibility tests as follows.
(§4) The antifungal activities of the compounds of the invention against different fungi were measured according to standard broth microdilution methods of the US National Committee for Clinical Laboratory standards (NCCLS) for yeasts (NCCLS document M27-A, 1997) and filamentous fungi (NCCLS document M38-A, 2002).
(§5) Stock solutions of compounds of the invention were freshly prepared on the days of experiments equal to 1.28 mg/10 ml media. Serial dilutions were performed to achieve the following testing concentrations: 64 μg/ml, 32 μg/ml, 16 μg/ml, 8 μg/ml, 4 μg/ml, 2 μg/ml, 1 μg/ml, 0.5 μg/ml, 0.25 μg/ml and 0.125 μg/ml.
(§6) An inoculum of 10^6 CFU/ml of the fungi strain was prepared in the appropriate medium and transferred to test tubes for incubation.
(§7) The method is used to determine the minimum inhibitory concentrations (MIC) of drugs on fungi strains. […] For the filamentous fungi protocol, MIC determination took place after 48 to 72 h of culture at 35° C. and was defined at that concentration which produced more than 50% visible growth inhibition.

Candida albicans TS3 = assay: Anti-fungal broth microdilution (MIC), fungus F; type: cell-based; details: yeast protocol, more than 80% inhibition, 48 h
Protocol: as §3, §4, §5, §6, §7

[4] = test system: Plasmodium faiciparum (strain 3D7); assay: In vitro drug activity assay, protozoon D; type: cell-based, Plasmodium falciparum; details: strain 3D7, 3[H]-hypoxanthine method
Protocol: as §1
(§8) Plasmodium falciparum strain K1 and strain 3D7 parasites were cultured according to Trager W and Jensen J B (Science 1976, 193: 673-675). In vitro drug susceptibility assays with the test compounds were carried out according to Korsinczky M et al. (Antimicrobial agents and chemotherapy 2000, 44(8): 2100-2108) and Fivelman Q L et al. (Antimicrobial agents and chemotherapy 2004, 48(11): 4097-4102) using a ^3[H]-hypoxanthine radioisotope method. ED50 values were calculated with Msxlfit (IDBS).
as §2

[5] = test system: Aspergillus fumigatus 322-384; assay: Anti-fungal broth microdilution (MIC), fungus B; type: cell-based; details: filamentous protocol, more than 50% growth inhibition, 48 to 72 h
Protocol: as §3, §4, §5, §6, §7

[6] = test system: Plasmodium falciparum (strain K1); assay: In vitro drug activity assay, protozoon C; type: cell-based; details: strain K1, 3[H]-hypoxanthine method
Protocol: as §1, §8, §2

Structure (SMILES) | Epimastigotes [amount/mL] ([1]; miltefosine 1.25 ug/mL) | Epimastigotes [amount/mL] ([1]; miltefosine 2.5 ug/mL) | ED50 (μg/mL), protozoon B [2] | MIC, fungus J [3] | MIC, fungus F (Candida albicans TS3) | ED50 (μg/mL), protozoon D [4] | MIC, fungus B [5] | ED50 (μg/mL), protozoon C [6]
CCCCCCCCCCCCCCCCOP(=O)([O-])OCC[N+](C)(C)C [miltefosine, hexadecylphosphocholine, reference compound] | 820.000 amount/mL | 290.000 amount/mL | – | – | – | – | – | –
CCCCCCCCCCCCCCCCOP(=O)([O-])OCC[N+]1(C)CCCCC1 [Compound 2, Phosphoric acid hexadecyl ester 2-(1-methyl-piperidin-1-yl)-ethyl ester] | – | – | 17.50 µg/mL (≈ 39.1 µM) | 0.75 mg/L (≈ 1.68 µM) | 1.5 mg/L (≈ 3.35 µM) | 2.21 µg/mL (≈ 4.94 µM) | 2 mg/L (≈ 4.47 µM) | 19.36 µg/mL (≈ 43.2 µM)
